From patent US20250222120A1, “SYNTHESIS OF NOVEL SMALL MOLECULE CARM1 DEGRADERS, COMPOUNDS FORMED THEREBY, AND PHARMACEUTICAL COMPOSITIONS CONTAINING THEM” (Wisconsin Alumni Research Foundation, priority 2024, published 2025)

Tests used:
[1] = system: MDA-MB-231 cells; assay: Transwell migration assay, MDA-MB-231 cells; format: cell-based
Method: Transwell Migration Assay. Cells were harvested and washed in serum-free DMEM. The wells of a 24-well plate were filled with 800 μL of DMEM with 10% FBS. Transwell inserts with […] pore size were then added to the wells with DMEM. Cells were resuspended in serum-free DMEM, then 1×10^5 cells in 200 μL were added to the upper chambers. Drug treatments were added to the lower chambers, then incubated for 20 h at 37° C. The cells on the upper surface were removed with cotton swabs. Migratory cells were fixed in 3.7% formaldehyde at room temperature, followed by 100% methanol at −20° C. Fixed cells were stained with 1% crystal violet in 20% methanol for 30 min. The migration area was quantified from five independent fields of view of the lower surface of the membrane under a microscope.

[2] = target: T1, CARM1 (Homo sapiens, UniProt Q86X55); assay: CARM1 degradation by western blot in MCF10A cells; format: cell-based; set-up: endogenous in cells; settings: normal human mammary epithelial cell model
T1 sequence (Q86X55 1-608): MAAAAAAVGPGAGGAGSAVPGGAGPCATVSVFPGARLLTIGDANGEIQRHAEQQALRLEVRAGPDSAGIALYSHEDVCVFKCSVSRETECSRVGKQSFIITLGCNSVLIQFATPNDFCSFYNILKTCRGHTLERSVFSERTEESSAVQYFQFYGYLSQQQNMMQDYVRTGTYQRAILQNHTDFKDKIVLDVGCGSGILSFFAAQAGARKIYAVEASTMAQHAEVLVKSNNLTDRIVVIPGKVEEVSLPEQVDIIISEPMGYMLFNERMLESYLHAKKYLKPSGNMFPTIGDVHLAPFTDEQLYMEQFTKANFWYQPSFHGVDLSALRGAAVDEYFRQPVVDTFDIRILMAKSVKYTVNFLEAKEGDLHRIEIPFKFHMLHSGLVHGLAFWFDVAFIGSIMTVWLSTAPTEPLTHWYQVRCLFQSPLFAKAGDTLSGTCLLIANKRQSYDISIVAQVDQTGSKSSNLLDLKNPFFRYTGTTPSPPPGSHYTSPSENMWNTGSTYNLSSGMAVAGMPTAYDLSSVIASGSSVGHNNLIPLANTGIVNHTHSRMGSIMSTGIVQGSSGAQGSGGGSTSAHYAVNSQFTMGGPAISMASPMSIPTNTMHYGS
Method: FIG. 5. […] Cell lysates were collected and the CARM1 levels were detected by western blots.
(§1) Western Blot Assay. Cells were harvested and washed with Dulbecco's phosphate-buffered saline (PBS), then lysed with 1×RIPA lysis buffer (50 mM Tris pH 7.5, 150 mM NaCl, 1% NP-40, 0.5% sodium deoxycholate, and 0.1% sodium dodecyl sulfate) supplemented with 1 mM phenylmethylsulfonyl fluoride, 10 μg/mL aprotinin, 1 μM leupeptin, and 10 μg/mL pepstatin on ice for 20 min. The supernatant was collected after spinning down at 15000 RPM at 4 degrees Celsius for 10 min. The concentration of whole lysates was quantified using a Bradford assay. 50-75 μg of cell lysates was boiled in 4× Laemmli Loading Dye and boiled at 100 degrees Celsius for 10 min. 25 μg were run in 8% SDS-PAGE gels and transferred to nitrocellulose membranes. Blots were blocked in 5% skim milk in PBST [PBS and 0.1% Tween 20] for 45 min, then incubated with primary antibodies at 4 degrees Celsius overnight. Blots were washed in PBST for 30 min, then incubated with horseradish peroxidase-linked secondary antibodies (Jackson ImmunoResearch) for 1 hr. Afterwards, blots were washed in PBST for 15-30 min, then treated with chemiluminescent ECL reagent and imaged with the ChemiDoc Imaging System (Bio-Rad) or Azure 600 (Azure Biosystems). […]

[3] = system: PABP1 and BAF155 di-methylation by CARM1; assay: PABP1 and BAF155 di-methylation (me2a) inhibition in MCF7 cells, western blot; format: cell-based, human; settings: 24 h, 0.1 μM 3b versus 10 μM TP-064
Text: (See Wang et al. “CARM1 Methylates Chromatin Remodeling Factor BAF155 to Enhance Tumor Progression and Metastasis” Cancer Cell 2014, 25 (1), 21-36; Lee and Bedford. “PABP1 Identified as an Arginine Methyltransferase Substrate Using High-Density Protein Arrays” EMBO Rep. 2002, 3 (3), 268-273.) In fact, asymmetric dimethylation (me2a) of these proteins are routinely investigated for CARM1 inhibitors.
as §1, with “overnight.” for “overnight. Blots were washed in PBST for 30 min, then incubated with horseradish peroxidase-linked secondary antibodies (Jackson ImmunoResearch) for 1 hr. Afterwards, blots were washed in PBST for 15-30 min, then treated with chemiluminescent ECL reagent and imaged with the ChemiDoc Imaging System (Bio-Rad) or Azure 600 (Azure Biosystems).”

Which results are given for `CNCCN1CCC(c2cc(CN(C)C(=O)c3cccc(Oc4ccc(OCC(=O)N5CCC(CN6CCC(CN7CCN(CC(=O)N[C@H](C(=O)N8C[C@H](O)C[C@H]8C(=O)N[C@@H](C)c8ccc(-c9scnc9C)cc8)C(C)(C)C)CC7)CC6)CC5)cc4)c3)ccn2)CC1` [Compound 3b, (2S,4R)-1-((S)-3,3-dimethyl-2-(2-(4-((1-((1-(2-(4-(3-(methyl((2-(1-(2-(methylamino)ethyl)piperidin-4-yl)pyridin-4-yl)methyl)carbamoyl)phenoxy)phenoxy)acetyl)piperidin-4-yl)methyl)piperidin-4-yl)methyl)piperazin-1-yl)acetamido)butanoyl)-4-hydroxy-N—((S)-1-(4-(4-methylthiazol-5-yl)phenyl)ethyl)pyrrolidine-2-carboxamide]?
Dose lower than the corresponding inhibitor for the same anti-migratory effects ([1]; 0.5 μM 3b versus 10 μM TP-064): 20 fold; Cell migration ([1]; 0.5 μM, transwell, 20 h): inhibited cell migration at a similar level; CARM1 degradation [2]: high potency for CARM1 degradation; Levels of PABP1 and BAF155 me2a inhibition [3]: at least as equivalent to that of 10 μM of TP-064
